# Columns and labels:
# [1] = test system: PPAR semi deficient epithelial cells; experiment: LCT gene expression in PPAR knock down (ShPPAR) Caco-2 cells; assay type: cell-based, human
# Experimental: (§1) Transcripts of genes were estimated by quantitative PCR (qPCR) in order to confirm microarrays results. 1 μg of total RNA was reverse-transcripted into cDNA using the High Capacity cDNA Achive kit (Applied biosystems). qPCR was performed using an ABI PRISM 7000 sequence detection system (Applied Biosystem). Primer pairs for each transcript were chosen with qPrimer depot software. Quantification of qPCR signals was performed using ΔCt relative quantification method using GAPDH as a reference gene. The values were represented in terms of relative quantity of mRNA level variation or fold increase compared to control conditions.
# PPARγ knock down IECs were obtained using the pSUPER.retro system (OligoEngine). Forward and reverse target sequences corresponding to nucleotides 105-123 of the human PPARg mRNA (5-′-GCCCTTCACTACTGTTGAC-3′ (SEQ ID NO: 1)) were cloned into the BglII/XhoI restriction sites of the pSUPERretro vector (pRS) giving the ShPPAR construct. A negative control pRS plasmid containing the sequence 5′-ACGCTGAGTACTTCGAAAT-3′ (SEQ ID NO: 2) targeted against the luciferase gene was also generated (ShLuc construct). Both constructions were transfected in Caco-2 cells using Nucleofector technology from Amaxa Biosystems, according to the manufacturer's protocol. […] The silencing of PPARg expression was checked by quantitative RT-PCR and western-blot analysis. […]
# human lactase gene = experiment: Lactase mRNA expression (qPCR) in Caco-2 cells stimulated with PPAR agonists; assay type: cell-based; conditions: for LCT gene expression in Caco2 cells: summary statement
# Experimental: Caco-2 colonic adenocarcinoma cell lines were used. Caco-2 cells grew in Dulbecco's modified Eagle's medium (DMEM, Invitrogen, Cergy-Pontoise, France) supplemented with 20% foetal calf serum (FCS, Dutscher, Brumath, France), 1% penicillin-streptomycin (5 ml/l) (Invitrogen) and 1% non-essential amino acids (5 ml/l) (Invitrogen). All cell lines were cultured as confluent monolayers at 37° C. in a controlled, 5% CO2 atmosphere. Each week, the confluent monolayer were trypsinized (Invitrogen) and then replated after a 1:10 dilution. For the stimulation experiments, cells were placed in 6-well plates at a density of 1×10^6 cells per well. Serum deprivation was used 16 hours prior to stimulation in order to synchronize the cells.
# The cells were treated with Compound 34 (1 mM and 30 mM), 5-ASA (30 mM), or pioglitazone (1 μM). When necessary, the vehicle DMSO (Sigma) is used as control (Ctrl). After 24 hrs of stimulation, the wells were rinsed three times with sterile PBS at 4° C. The cells were then lysed with lysis buffer (RA1, Macherey-Nagel) containing 1% β-mercaptoethanol. The plates were frozen at −80° C. for subsequent RNA extraction. A time course experiment consisting of stimulation of Caco-2 cells by compound 34, 1 mM during 6 hrs and 12 hrs was also done in order to compare gene expression according treatment duration.
# Total RNA were extracted with a Nucleospin RNA kit (Macherey-Nagel, Hoerdt, France). After RNAse inactivation, the total RNA was cleaned of trace genomic DNA via a DNAse treatment and eluted in RNAse-free, DEPC-free water. The purity of the RNA will be evaluated by UV spectroscopy on a Nanodrop system from 220 to 350 nm. Before microarray experiment, RNAs were also profiled on an Agilent 2100 bioanalyzer. One μg of total RNA were used in the microarray analysis (minimum concentration: 50 ng/μl).
# as §1
# Each experiment has been done at least twice. The lactase gene expression was first confirmed to be stimulated by compound 34 at two different concentrations (1 mM, fold increase 4.78, p=0.0002; 30 mM, fold increase 7.9, p=0.0006) (FIG. 4A).
Compound,LCT gene expression in PPAR semi deficient epithelial cells [1],"lactase gene expression, fold increase (human lactase gene; 30 mM, 24 hrs, Caco-2 cells) [fold]",LCT gene expression in Caco2 cells (human lactase gene),"lactase mRNA expression, fold increase (human lactase gene; 1 μM, 24 hrs, Caco-2 cells) [fold]"
"Nc1ccc(O)c(C(=O)O)c1 [5ASA, 5-amino salicyclic acid]",kept their upregulatory effects,12.69,enhance LCT gene expression,
CCc1ccc(CCOc2ccc(CC3SC(=O)NC3=O)cc2)nc1 (centres unmarked) [pioglitazone],,,enhance LCT gene expression,11.76

# From patent US9682050B2, “Methods of treating lactose intolerance” (Nogra Pharma Limited, priority 2012, dated 2017)
